# Measured values from the supplement of paper PMC11962398.
# Compound: T1, C[C@H]1CNCCN1c1nccc(-c2noc3c2CCC[C@@]32CCCc3sc(N)c(C#N)c32)n1 [BI-2493]
# Assay: not given
# Conditions: 5 days
# Procedure: (§1)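 PRISM pooled barcoded cancer cell line viability screen (Broad Institute) with BI-2493 at 8 doses in threefold dilutions from 0.00457 to 10 µmol/L, 5-day treatment; curves fitted per cell line. IC50 is undefined (placeholder) for resistant lines. AUC is capped at 1, and sensitivity is reported as 1 − AUC.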
row,Test System,IC50 of cell viability [µM]
1,NCIH1092_LUNG,3.99
2,JHH6_LIVER,4.43
3,CALU6_LUNG,9.77
4,SNU449_LIVER,7.3
5,CHAGOK1_LUNG,4.47
6,JHH7_LIVER,1.67
7,HUH28_BILIARY_TRACT,9.21
8,COLO680N_OESOPHAGUS,8.49
9,PSN1_PANCREAS,9.23
10,VMRCRCW_KIDNEY,5.59
11,NCIH1876_LUNG,3.89
12,HL60_HAEMATOPOIETIC_AND_LYMPHOID_TISSUE,> 10
13,NCIH1648_LUNG,1.57
14,PEDS005TSUSP_KIDNEY,7.58
15,SNU182_LIVER,> 10
16,MOLT13_HAEMATOPOIETIC_AND_LYMPHOID_TISSUE,5.21
17,ONCODG1_OVARY,8.36
18,CL11_LARGE_INTESTINE,5.92
19,SNU46_UPPER_AERODIGESTIVE_TRACT,5.4
20,VMRCRCZ_KIDNEY,6.92
21,NCIH1623_LUNG,9.93
22,SKMEL2_SKIN,9.59
23,HT1197_URINARY_TRACT,4.69
24,MKN74_STOMACH,7.22

row,Test System,IC50 of cell viability [µM]
1,NCIH2444_LUNG,6.69
2,SW756_CERVIX,5.46
3,RMGI_OVARY,9.09
4,EFO21_OVARY,> 10
5,KYO1_HAEMATOPOIETIC_AND_LYMPHOID_TISSUE,9.93
6,HCC1428_BREAST,5.47
7,A704_KIDNEY,9.08
8,EN_ENDOMETRIUM,9.54
9,PL21_HAEMATOPOIETIC_AND_LYMPHOID_TISSUE,0.451
10,CAS1_CENTRAL_NERVOUS_SYSTEM,9.1
11,OCILY3_HAEMATOPOIETIC_AND_LYMPHOID_TISSUE,7.48
12,OCIAML3_HAEMATOPOIETIC_AND_LYMPHOID_TISSUE,2.15
13,HCT116_LARGE_INTESTINE,4.75
14,HCC1954_BREAST,5.1
15,MOLM14_HAEMATOPOIETIC_AND_LYMPHOID_TISSUE,2.79
16,HMC18_BREAST,4.86
17,HT_HAEMATOPOIETIC_AND_LYMPHOID_TISSUE,6.79
18,SNU466_CENTRAL_NERVOUS_SYSTEM,2.75
19,HSC2_UPPER_AERODIGESTIVE_TRACT,3.64
20,A3KAW_HAEMATOPOIETIC_AND_LYMPHOID_TISSUE,3.54
21,NCIH2077_LUNG,8.95
22,GCIY_STOMACH,> 10
23,U266B1_HAEMATOPOIETIC_AND_LYMPHOID_TISSUE,7.47
24,NCIH2172_LUNG,8.7

row,Test System,IC50 of cell viability [µM]
1,OE21_OESOPHAGUS,3.82
2,NCIN87_STOMACH,9.6
3,UBLC1_URINARY_TRACT,4.3
4,DV90_LUNG,0.856
5,MDAMB435S_SKIN,4.3
6,IGROV1_OVARY,8.03
7,SNU1196_BILIARY_TRACT,0.361
8,SW1990_PANCREAS,0.926
9,KP4_PANCREAS,4.92
10,EBC1_LUNG,6.97
11,BICR18_UPPER_AERODIGESTIVE_TRACT,4.16
12,MFE296_ENDOMETRIUM,9.19
13,GCT27_TESTIS,> 10
14,JIMT1_BREAST,5.98
15,PK45H_PANCREAS,4.3
16,OV17R_OVARY,9.34
17,SNU1066_UPPER_AERODIGESTIVE_TRACT,6.03
18,CAL29_URINARY_TRACT,2.5
19,CAMA1_BREAST,> 10
20,BC3C_URINARY_TRACT,5.1
21,LS_AUTONOMIC_GANGLIA,3.67
22,C8166_HAEMATOPOIETIC_AND_LYMPHOID_TISSUE,9.65
23,BICR31_UPPER_AERODIGESTIVE_TRACT,6.97
24,8505C_THYROID,9.69

row,Test System,IC50 of cell viability [µM]
1,ICC10_BILIARY_TRACT,9.23
2,WM2664_SKIN,9.22
3,OCILY19_HAEMATOPOIETIC_AND_LYMPHOID_TISSUE,3.56
4,PATU8902_PANCREAS,6.58
5,YD8_UPPER_AERODIGESTIVE_TRACT,> 10
6,BLUE1_HAEMATOPOIETIC_AND_LYMPHOID_TISSUE,3.33
7,SJSA1_BONE,7.93
8,SCC9_UPPER_AERODIGESTIVE_TRACT,6.27
9,OCUG1_BILIARY_TRACT,4.77
10,CAL27_UPPER_AERODIGESTIVE_TRACT,3.79
11,HS729_SOFT_TISSUE,8.7
12,TTC709_SOFT_TISSUE,4.96
13,LMSU_STOMACH,5.54
14,SW620_LARGE_INTESTINE,1.1
15,MALME3M_SKIN,6.19
16,MFE319_ENDOMETRIUM,9.02
17,KE97_STOMACH,> 10
18,KARPAS620_HAEMATOPOIETIC_AND_LYMPHOID_TISSUE,0.866
19,SNU245_BILIARY_TRACT,0.731
20,SW1783_CENTRAL_NERVOUS_SYSTEM,7.49
21,SKMEL24_SKIN,9.18
22,KYSE510_OESOPHAGUS,5.11

# Compound: T1, BI-2493
# Assay: 1 - AUC of viability dose-response curve (sensitivity) (fraction); higher = more sensitive
# Conditions: 5 days
# Procedure: as §1
row,Test System,1 - AUC of viability dose-response curve
1,NCIH1092_LUNG,0.131
2,JHH6_LIVER,0.0848
3,CALU6_LUNG,0.00583
4,SNU449_LIVER,0.0578
5,CHAGOK1_LUNG,0.173
6,JHH7_LIVER,0.27
7,HUH28_BILIARY_TRACT,0.0149
8,COLO680N_OESOPHAGUS,0.0719
9,PSN1_PANCREAS,0.137
10,VMRCRCW_KIDNEY,0.0854
11,NCIH1876_LUNG,0.0823
12,HL60_HAEMATOPOIETIC_AND_LYMPHOID_TISSUE,0.089
13,NCIH1648_LUNG,0.26
14,PEDS005TSUSP_KIDNEY,0.0633
15,SNU182_LIVER,0.0527
16,MOLT13_HAEMATOPOIETIC_AND_LYMPHOID_TISSUE,0.13
17,ONCODG1_OVARY,0.0507
18,CL11_LARGE_INTESTINE,0.117
19,SNU46_UPPER_AERODIGESTIVE_TRACT,0.192
20,VMRCRCZ_KIDNEY,0.0774
21,NCIH1623_LUNG,0.0102
22,SKMEL2_SKIN,0.0065
23,HT1197_URINARY_TRACT,0.0777
24,MKN74_STOMACH,0.117

row,Test System,1 - AUC of viability dose-response curve
1,NCIH2444_LUNG,0.102
2,SW756_CERVIX,0.14
3,RMGI_OVARY,0.0414
4,EFO21_OVARY,0.106
5,KYO1_HAEMATOPOIETIC_AND_LYMPHOID_TISSUE,0.00435
6,HCC1428_BREAST,0.106
7,A704_KIDNEY,0.0519
8,EN_ENDOMETRIUM,0.0294
9,PL21_HAEMATOPOIETIC_AND_LYMPHOID_TISSUE,0.358
10,CAS1_CENTRAL_NERVOUS_SYSTEM,0.0158
11,OCILY3_HAEMATOPOIETIC_AND_LYMPHOID_TISSUE,0.0575
12,OCIAML3_HAEMATOPOIETIC_AND_LYMPHOID_TISSUE,0.23
13,HCT116_LARGE_INTESTINE,0.167
14,HCC1954_BREAST,0.0754
15,MOLM14_HAEMATOPOIETIC_AND_LYMPHOID_TISSUE,0.145
16,HMC18_BREAST,0.15
17,HT_HAEMATOPOIETIC_AND_LYMPHOID_TISSUE,0.104
18,SNU466_CENTRAL_NERVOUS_SYSTEM,0.218
19,HSC2_UPPER_AERODIGESTIVE_TRACT,0.169
20,A3KAW_HAEMATOPOIETIC_AND_LYMPHOID_TISSUE,0.191
21,NCIH2077_LUNG,0.182
22,GCIY_STOMACH,0.00163
23,U266B1_HAEMATOPOIETIC_AND_LYMPHOID_TISSUE,0.0732
24,NCIH2172_LUNG,0.0555

row,Test System,1 - AUC of viability dose-response curve
1,OE21_OESOPHAGUS,0.112
2,NCIN87_STOMACH,0.00691
3,UBLC1_URINARY_TRACT,0.137
4,DV90_LUNG,0.308
5,MDAMB435S_SKIN,0.0956
6,IGROV1_OVARY,0.205
7,SNU1196_BILIARY_TRACT,0.496
8,SW1990_PANCREAS,0.324
9,KP4_PANCREAS,0.189
10,EBC1_LUNG,0.0696
11,BICR18_UPPER_AERODIGESTIVE_TRACT,0.147
12,MFE296_ENDOMETRIUM,0.136
13,GCT27_TESTIS,0.128
14,JIMT1_BREAST,0.115
15,PK45H_PANCREAS,0.168
16,OV17R_OVARY,0.044
17,SNU1066_UPPER_AERODIGESTIVE_TRACT,0.0923
18,CAL29_URINARY_TRACT,0.264
19,CAMA1_BREAST,0.00667
20,BC3C_URINARY_TRACT,0.193
21,LS_AUTONOMIC_GANGLIA,0.125
22,C8166_HAEMATOPOIETIC_AND_LYMPHOID_TISSUE,0.00732
23,BICR31_UPPER_AERODIGESTIVE_TRACT,0.0764
24,8505C_THYROID,0.00728

row,Test System,1 - AUC of viability dose-response curve
1,ICC10_BILIARY_TRACT,0.0142
2,WM2664_SKIN,0.0151
3,OCILY19_HAEMATOPOIETIC_AND_LYMPHOID_TISSUE,0.19
4,PATU8902_PANCREAS,0.0766
5,YD8_UPPER_AERODIGESTIVE_TRACT,0.0906
6,BLUE1_HAEMATOPOIETIC_AND_LYMPHOID_TISSUE,0.129
7,SJSA1_BONE,0.095
8,SCC9_UPPER_AERODIGESTIVE_TRACT,0.11
9,OCUG1_BILIARY_TRACT,0.132
10,CAL27_UPPER_AERODIGESTIVE_TRACT,0.241
11,HS729_SOFT_TISSUE,0.101
12,TTC709_SOFT_TISSUE,0.16
13,LMSU_STOMACH,0.103
14,SW620_LARGE_INTESTINE,0.313
15,MALME3M_SKIN,0.0805
16,MFE319_ENDOMETRIUM,0.0267
17,KE97_STOMACH,0.00627
18,KARPAS620_HAEMATOPOIETIC_AND_LYMPHOID_TISSUE,0.326
19,SNU245_BILIARY_TRACT,0.381
20,SW1783_CENTRAL_NERVOUS_SYSTEM,0.0474
21,SKMEL24_SKIN,0.157
22,KYSE510_OESOPHAGUS,0.22
